Assay results: article PMC2941766 (Molecular pharmaceutics, 2010)

Assays:
Format in all cases: in vitro ADME
[1] = Glucuronidation by pooled human liver microsomes; conditions: human liver microsomes, 2.5μM substrate
UGT1A1 = molecular target: T1, UGT1A1 (Homo sapiens, UniProt P22309); experiment: Glucuronidation by expressed human UGT1A1; conditions: 37°C
T1 sequence (P22309 26-533): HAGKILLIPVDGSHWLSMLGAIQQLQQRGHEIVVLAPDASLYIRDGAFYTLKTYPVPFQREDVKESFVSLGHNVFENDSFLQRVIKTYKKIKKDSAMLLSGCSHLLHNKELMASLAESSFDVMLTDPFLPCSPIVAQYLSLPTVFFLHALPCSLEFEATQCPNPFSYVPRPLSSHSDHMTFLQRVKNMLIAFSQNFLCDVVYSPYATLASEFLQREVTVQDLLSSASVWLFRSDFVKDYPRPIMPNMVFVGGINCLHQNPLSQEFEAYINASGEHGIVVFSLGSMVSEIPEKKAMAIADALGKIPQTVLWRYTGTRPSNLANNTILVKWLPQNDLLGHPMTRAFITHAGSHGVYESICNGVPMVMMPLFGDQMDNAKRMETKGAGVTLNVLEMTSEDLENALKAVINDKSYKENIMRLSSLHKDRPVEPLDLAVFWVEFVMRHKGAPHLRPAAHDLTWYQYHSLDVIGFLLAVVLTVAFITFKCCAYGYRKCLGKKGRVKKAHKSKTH

UGT1A10 = molecular target: T2, UGT1A10 (Homo sapiens, UniProt Q9HAW8); experiment: Glucuronidation by expressed human UGT1A10; conditions: UGT1A10, 10 μM substrate, 37°C
T2 sequence (Q9HAW8 26-530): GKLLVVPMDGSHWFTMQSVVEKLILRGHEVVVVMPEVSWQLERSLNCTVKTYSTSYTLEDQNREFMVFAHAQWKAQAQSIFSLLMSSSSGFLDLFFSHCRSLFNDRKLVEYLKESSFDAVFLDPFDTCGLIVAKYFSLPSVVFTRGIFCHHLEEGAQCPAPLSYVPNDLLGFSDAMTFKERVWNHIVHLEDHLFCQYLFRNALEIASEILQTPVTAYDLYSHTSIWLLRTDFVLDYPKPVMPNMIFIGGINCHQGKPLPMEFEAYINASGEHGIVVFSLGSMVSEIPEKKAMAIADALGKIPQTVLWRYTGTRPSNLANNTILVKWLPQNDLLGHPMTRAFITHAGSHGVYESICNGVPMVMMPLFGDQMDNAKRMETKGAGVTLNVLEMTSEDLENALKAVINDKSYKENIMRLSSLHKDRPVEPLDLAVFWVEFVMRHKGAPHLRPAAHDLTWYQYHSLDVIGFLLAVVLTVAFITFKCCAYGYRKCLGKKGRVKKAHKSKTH

UGT1A7 = molecular target: T3, UGT1A7 (Homo sapiens, UniProt Q9HAW7); experiment: Glucuronidation by expressed human UGT1A7; conditions: UGT1A7, 2.5μM substrate, 37°C
T3 sequence (Q9HAW7 26-530): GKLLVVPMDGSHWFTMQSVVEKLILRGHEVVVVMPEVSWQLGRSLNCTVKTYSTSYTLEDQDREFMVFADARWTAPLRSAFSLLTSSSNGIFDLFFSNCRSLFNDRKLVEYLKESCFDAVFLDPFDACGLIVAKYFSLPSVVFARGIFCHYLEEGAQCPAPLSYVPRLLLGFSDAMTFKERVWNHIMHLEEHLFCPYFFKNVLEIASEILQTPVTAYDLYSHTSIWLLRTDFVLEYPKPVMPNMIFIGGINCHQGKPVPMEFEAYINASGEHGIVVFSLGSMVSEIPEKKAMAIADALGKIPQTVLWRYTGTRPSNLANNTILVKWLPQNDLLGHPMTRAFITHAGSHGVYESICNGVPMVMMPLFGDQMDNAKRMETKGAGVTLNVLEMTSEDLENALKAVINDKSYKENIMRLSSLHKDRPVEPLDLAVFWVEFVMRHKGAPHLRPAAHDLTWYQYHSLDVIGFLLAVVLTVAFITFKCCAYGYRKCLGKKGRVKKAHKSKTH

UGT1A8 = molecular target: T4, UGT1A8 (Homo sapiens, UniProt Q9HAW9); experiment: Glucuronidation by expressed human UGT1A8; conditions: UGT1A8, 2.5μM substrate, 37°C
T4 sequence (Q9HAW9 26-530): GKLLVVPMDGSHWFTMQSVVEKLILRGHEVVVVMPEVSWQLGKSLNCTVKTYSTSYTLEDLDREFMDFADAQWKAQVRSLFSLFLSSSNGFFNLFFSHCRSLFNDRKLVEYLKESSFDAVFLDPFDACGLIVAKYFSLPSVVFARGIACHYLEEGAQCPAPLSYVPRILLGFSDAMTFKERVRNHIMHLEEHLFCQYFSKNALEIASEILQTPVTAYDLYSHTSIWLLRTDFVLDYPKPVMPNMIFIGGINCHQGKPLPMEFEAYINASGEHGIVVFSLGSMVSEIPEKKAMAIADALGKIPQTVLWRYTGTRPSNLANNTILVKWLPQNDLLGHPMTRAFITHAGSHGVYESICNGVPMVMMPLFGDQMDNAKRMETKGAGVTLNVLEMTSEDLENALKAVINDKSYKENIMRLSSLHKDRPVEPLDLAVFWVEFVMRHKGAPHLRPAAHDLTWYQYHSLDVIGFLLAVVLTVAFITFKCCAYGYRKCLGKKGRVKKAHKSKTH

UGT1A9 = molecular target: T5, UGT1A9 (Homo sapiens, UniProt O60656); experiment: Glucuronidation by expressed human UGT1A9; conditions: for glucuronidation rate: UGT1A9, 2.5 μM substrate, 37°C
T5 sequence (O60656 26-530): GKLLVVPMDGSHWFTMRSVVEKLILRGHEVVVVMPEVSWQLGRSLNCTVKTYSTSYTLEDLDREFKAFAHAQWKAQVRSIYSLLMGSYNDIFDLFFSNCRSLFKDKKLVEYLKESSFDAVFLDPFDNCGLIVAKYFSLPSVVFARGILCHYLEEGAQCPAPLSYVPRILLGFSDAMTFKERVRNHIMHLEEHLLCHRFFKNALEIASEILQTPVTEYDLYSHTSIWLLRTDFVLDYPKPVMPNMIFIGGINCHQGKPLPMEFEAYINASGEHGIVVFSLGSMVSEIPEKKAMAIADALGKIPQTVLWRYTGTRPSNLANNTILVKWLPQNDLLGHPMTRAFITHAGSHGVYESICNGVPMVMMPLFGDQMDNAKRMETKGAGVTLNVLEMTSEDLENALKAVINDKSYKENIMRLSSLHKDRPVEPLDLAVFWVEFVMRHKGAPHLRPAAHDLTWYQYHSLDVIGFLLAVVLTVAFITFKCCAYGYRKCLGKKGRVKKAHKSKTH

UGT2B7 = molecular target: T6, UGT2B7 (Homo sapiens, UniProt P16662); experiment: Glucuronidation by expressed human UGT2B7; conditions: for substrate of UGT2B7: UGT2B7, conclusion from fingerprints; for glucuronidation rate: 37°C
T6 sequence (P16662 24-529): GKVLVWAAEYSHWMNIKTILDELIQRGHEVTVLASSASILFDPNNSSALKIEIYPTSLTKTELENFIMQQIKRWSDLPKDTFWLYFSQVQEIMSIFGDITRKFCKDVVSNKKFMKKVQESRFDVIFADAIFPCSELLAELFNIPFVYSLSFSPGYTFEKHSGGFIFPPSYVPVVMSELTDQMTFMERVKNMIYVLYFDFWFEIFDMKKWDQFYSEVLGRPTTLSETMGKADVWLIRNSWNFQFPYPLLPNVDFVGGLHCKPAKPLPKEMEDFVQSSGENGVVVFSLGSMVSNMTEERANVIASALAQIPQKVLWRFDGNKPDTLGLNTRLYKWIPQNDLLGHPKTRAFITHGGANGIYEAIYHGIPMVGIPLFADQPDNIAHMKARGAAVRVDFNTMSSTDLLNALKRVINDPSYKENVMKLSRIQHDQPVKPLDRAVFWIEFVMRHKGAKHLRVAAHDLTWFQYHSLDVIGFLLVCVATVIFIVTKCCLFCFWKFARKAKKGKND

[2] = Glucuronidation by pooled human intestinal microsomes; conditions: human intestinal microsomes

Row | SMILES | glucuronidation rate [1] | glucuronidation rate (UGT1A10) | glucuronidation rate (UGT1A7) | glucuronidation rate (UGT1A9) | substrate of UGT2B7 (UGT2B7) | glucuronidation (detectable metabolism) (UGT1A9; UGT1A9, 35 μM substrate) | glucuronidation rate (UGT1A1; UGT1A1, 2.5μM substrate) | glucuronidation rate (UGT1A8) | glucuronidation rate ([2]; 2.5 μM substrate) | magnitude of the difference between fastest and slowest glucuronidation rate ([2]; 2.5 μM, 3-HF vs 5-HF) | glucuronidation rate (UGT1A1; UGT1A1, 10μM substrate) | glucuronidation rate (UGT1A1; UGT1A1, 35μM substrate) | glucuronidation rate (UGT2B7; UGT2B7, 2.5μM substrate) | glucuronidation rate (UGT2B7; UGT2B7, 10μM substrate) | glucuronidation rate (UGT2B7; UGT2B7, 35μM substrate)
1 | O=c1cc(-c2ccccc2O)oc2ccccc12 [2′-HF, 2′-hydroxyflavone] | 0.97±0.03 nmol per min per mg of protein | 0.09±0.01 nmol per min per mg of protein | 1.13±0.11 nmol per min per mg of protein | 0.43±0.06 nmol per min per mg of protein |  |  | 1.28±0.12 nmol per min per mg of protein | 1.18±0.26 nmol per min per mg of protein |  |  |  |  |  |  | 
2 | O=c1c(O)c(-c2ccc(O)cc2)oc2ccccc12 [3,4′-diHF, 3,4′-dihydroxyflavone] |  |  |  |  | substrates |  |  |  |  |  |  |  |  |  | 
3 | O=c1c(O)c(-c2ccccc2)oc2ccccc12 [3-HF, 3-hydroxyflavone] | 5.04±0.48 nmol per min per mg of protein | 1.37±0.19 nmol per min per mg of protein | 8.27±0.15 nmol per min per mg of protein | 3.03±0.04 nmol per min per mg of protein | substrates |  | 2.68 ± 0.47 nmol per min per mg of protein | 2.19 ± 0.27 nmol per min per mg of protein | 12.35±1.32 nmol per min per mg of protein | 25 folds | 3.80±0.21 nmol per min per mg of protein | 3.85±0.12 nmol per min per mg of protein | 1.39±0.14 nmol per min per mg of protein | 5.35±0.91 nmol per min per mg of protein | 2.19±0.07 nmol per min per mg of protein
4 | O=c1cc(-c2ccccc2)oc2cc(O)ccc12 [7-HF, 7-hydroxyflavone] | 1.39±0.01 nmol per min per mg of protein | 0.17±0.03 nmol per min per mg of protein | 0 nmol per min per mg of protein | 1.30±0.09 nmol per min per mg of protein |  |  | 1.73 ±0.21 nmol per min per mg of protein | 0.23±0.03 nmol per min per mg of protein |  |  |  |  |  |  | 

The next lines start with results.

Row | glucuronidation rate [1] | glucuronidation rate (UGT1A10) | glucuronidation rate (UGT1A7) | glucuronidation rate (UGT1A9) | substrate of UGT2B7 (UGT2B7) | glucuronidation (detectable metabolism) (UGT1A9; UGT1A9, 35 μM substrate) | SMILES | glucuronidation rate (UGT1A1; UGT1A1, 2.5μM substrate) | glucuronidation rate (UGT1A8) | glucuronidation rate ([2]; 2.5 μM substrate) | magnitude of the difference between fastest and slowest glucuronidation rate ([2]; 2.5 μM, 3-HF vs 5-HF) | glucuronidation rate (UGT1A1; UGT1A1, 10μM substrate) | glucuronidation rate (UGT1A1; UGT1A1, 35μM substrate) | glucuronidation rate (UGT2B7; UGT2B7, 2.5μM substrate) | glucuronidation rate (UGT2B7; UGT2B7, 10μM substrate) | glucuronidation rate (UGT2B7; UGT2B7, 35μM substrate)
5 |  |  |  |  | substrates |  | O=c1c(O)c(-c2ccccc2)oc2cccc(O)c12 [3,5-diHF, 3,5-dihydroxyflavone] |  |  |  |  |  |  |  |  | 
6 |  |  |  |  | substrates |  | O=c1c(O)c(-c2ccccc2)oc2cc(O)ccc12 [3,7-diHF, 3,7-dihydroxyflavone] |  |  |  |  |  |  |  |  | 
7 | 3.14±0.01 nmol per min per mg of protein | 0.86±0.08 nmol per min per mg of protein | 1.44±0.20 nmol per min per mg of protein | 0.48±0.13 nmol per min per mg of protein |  |  | O=c1cc(-c2cccc(O)c2)oc2ccccc12 [3′-HF, 3′-hydroxyflavone] | 1.59 ±0.26 nmol per min per mg of protein | 0.27 ±0.02 nmol per min per mg of protein |  |  |  |  |  |  | 
8 | 0.80±0.05 nmol per min per mg of protein | 0.30±0.05 nmol per min per mg of protein | 0 nmol per min per mg of protein | not detectable |  | no detectable metabolism | O=c1cc(-c2ccc(O)cc2)oc2ccccc12 [4′-HF, 4′-hydroxyflavone] | 1.34 ±0.21 nmol per min per mg of protein | 0.00±0.00 nmol per min per mg of protein |  |  |  |  |  |  | 
9 | 0.91±0.04 nmol per min per mg of protein | 0.62±0.07 nmol per min per mg of protein | 0 nmol per min per mg of protein | 0.10±0.00 nmol per min per mg of protein |  |  | O=c1cc(-c2ccccc2)oc2ccc(O)cc12 [6-HF, 6-hydroxyflavone] | 1.50±0.18 nmol per min per mg of protein | 0.87±0.12 nmol per min per mg of protein |  |  |  |  |  |  | 
